Results reported in PubChem BioAssay (NCI).
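Cultured in 96-well plates, cells were exposed to test compound for 48 hours across five concentrations. The concentration for 50% growth inhibition is given as GI50. At the TGI there is no net growth.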

How the values were obtained:
Experiment in all cases: NCI anticancer screen, dose series, 48 h
[1] = test system: U251 CNS
[2] = test system: KM12 colon
[3] = test system: T-47D breast
[4] = test system: A498 renal
[5] = test system: COLO 205 colon
[6] = test system: SK-MEL-28 melanoma
[7] = test system: DU-145 prostate
[8] = test system: SF-268 CNS
[9] = test system: LOX IMVI melanoma
[10] = test system: UACC-257 melanoma
[11] = test system: HCC-2998 colon
[12] = test system: HOP-92 NSCLC
[13] = test system: IGROV1 ovarian
[14] = test system: NCI-H226 lung
[15] = test system: SK-MEL-2 melanoma
[16] = test system: UACC-62 melanoma
[17] = test system: NCI/ADR-RES ovarian
[18] = test system: NCI-H23 lung
[19] = test system: SF-539 CNS
[20] = test system: MALME-3M melanoma
[21] = test system: OVCAR-8 ovarian
[22] = test system: OVCAR-3 ovarian
[23] = test system: K-562 leukemia
[24] = test system: MCF7 breast
[25] = test system: A549 NSCLC
[26] = test system: MOLT-4 leukemia
[27] = test system: SW-620 colon
[28] = test system: SNB-19 CNS
[29] = test system: MDA-MB-231 breast
[30] = test system: NCI-H460 lung
[31] = test system: ACHN renal
[32] = test system: BT-549 breast
[33] = test system: M14 melanoma
[34] = test system: EKVX NSCLC
[35] = test system: HT29 colon
[36] = test system: RXF 393 renal
[37] = test system: OVCAR-5 ovarian
[38] = test system: HCT-116 colon
[39] = test system: NCI-H522 lung
[40] = test system: SK-OV-3 ovarian
[41] = test system: SK-MEL-5 melanoma
[42] = test system: 786-0 renal
[43] = test system: SNB-75 CNS
[44] = test system: HS 578T breast
[45] = test system: CCRF-CEM leukemia
[46] = test system: UO-31 renal
[47] = test system: SN12C renal
[48] = test system: HOP-62 NSCLC
[49] = test system: OVCAR-4 ovarian
[50] = test system: TK-10 renal
[51] = test system: RPMI-8226 leukemia
[52] = test system: HCT-15 colon
[53] = test system: PC-3 prostate
[54] = test system: MDA-MB-435
[55] = test system: SR leukemia
[56] = test system: HL-60(TB) leukemia
[57] = test system: SF-295 CNS
[58] = test system: CAKI-1 renal

`CC(C)=CCc1cc(O)cc2c1OC(C=C(C)C)C1=C2C(=O)C2=C(C1=O)S(=O)(=O)CCN2` (stereo unspecified) was tested, and the GI50 [1] was 2840 nM, the TGI [1] was 5.15 µM and the GI50 [2] was 5.8 µM. The TGI [2] was greater than 16.7 µM, the GI50 [3] was 3.57 µM and the TGI [3] was 12.7 µM. It also gave a GI50 [4] of 9.61 µM, a TGI [4] greater than 16.7 µM and a GI50 [5] of 5.42 µM. The TGI [5] was greater than 16.7 µM, the GI50 [6] was 3.12 µM and the TGI [6] was 6.04 µM. It also gave a GI50 [7] of 2.93 µM, a TGI [7] of 5.37 µM and a GI50 [8] of 2.91 µM. For the same compound, the TGI [8] was 8.37 µM, the GI50 [9] was 3.48 µM and the TGI [9] was 10.2 µM. The GI50 [10] was 2560 nM, the TGI [10] was 4.97 µM and the GI50 [11] was 5.53 µM. For the same compound, the TGI [11] was greater than 16.7 µM, the GI50 [12] was 6.05 µM and the TGI [12] was greater than 16.7 µM. For the same compound, the GI50 [13] was 3.23 µM, the TGI [13] was 9.17 µM and the GI50 [14] was 4.75 µM. The TGI [14] was greater than 16.7 µM, the GI50 [15] was 3.13 µM and the TGI [15] was 6.56 µM. For the same compound, the GI50 [16] was 2810 nM, the TGI [16] was 5.46 µM and the GI50 [17] was greater than 16.7 µM. For the same compound, the TGI [17] was greater than 16.7 µM, the GI50 [18] was 3.85 µM and the TGI [18] was 12.9 µM. It also gave a GI50 [19] of 2.8 µM, a TGI [19] of 5.09 µM and a GI50 [20] of 1690 nM. For the same compound, the TGI [20] was 3.64 µM, the GI50 [21] was 3.09 µM and the TGI [21] was 6.72 µM. For the same compound, the GI50 [22] was 1180 nM, the TGI [22] was 14.8 µM and the GI50 [23] was 4.68 µM. The TGI [23] was greater than 16.7 µM, the GI50 [24] was 2.79 µM and the TGI [24] was 6.97 µM. The GI50 [25] was 6.14 µM, the TGI [25] was greater than 16.7 µM and the GI50 [26] was 3400 nM. The TGI [26] was 8.99 µM, the GI50 [27] was 5.34 µM and the TGI [27] was 16.5 µM. For the same compound, the GI50 [28] was 2.78 µM, the TGI [28] was 5.15 µM and the GI50 [29] was 2.99 µM. For the same compound, the TGI [29] was 8.27 µM, the GI50 [30] was 5.23 µM and the TGI [30] was greater than 16.7 µM. For the same compound, the GI50 [31] was 6.14 µM, the TGI [31] was greater than 16.7 µM and the GI50 [32] was 5.18 µM. The TGI [32] was greater than 16.7 µM, the GI50 [33] was 2.92 µM and the TGI [33] was 5.59 µM. It also gave a GI50 [34] of 3.3 µM, a TGI [34] of 9.16 µM and a GI50 [35] of 6.61 µM. For the same compound, the TGI [35] was greater than 16.7 µM, the GI50 [36] was 3.02 µM and the TGI [36] was 12.5 µM. It also gave a GI50 [37] of 4.34 µM, a TGI [37] of 12.5 µM and a GI50 [38] of 2970 nM. The TGI [38] was 7.14 µM, the GI50 [39] was 2.94 µM and the TGI [39] was 7.03 µM. It also gave a GI50 [40] of 8.06 µM, a TGI [40] greater than 16.7 µM and a GI50 [41] of 2750 nM. It also gave a TGI [41] of 5.05 µM, a GI50 [42] of 5.05 µM and a TGI [42] greater than 16.7 µM. The GI50 [43] was 2600 nM, the TGI [43] was 6.39 µM and the GI50 [44] was 3.15 µM. The TGI [44] was 13 µM, the GI50 [45] was 5.81 µM and the TGI [45] was greater than 16.7 µM. For the same compound, the GI50 [46] was 6.23 µM, the TGI [46] was greater than 16.7 µM and the GI50 [47] was 2700 nM. It also gave a TGI [47] of 5.45 µM, a GI50 [48] of 5.66 µM and a TGI [48] greater than 16.7 µM. It also gave a GI50 [49] of 2.77 µM, a TGI [49] of 6.72 µM and a GI50 [50] greater than 16.7 µM. The TGI [50] was greater than 16.7 µM, the GI50 [51] was 4.16 µM and the TGI [51] was 12.2 µM. It also gave a GI50 [52] of 5.8 µM, a TGI [52] greater than 16.7 µM and a GI50 [53] of 5.09 µM. For the same compound, the TGI [53] was greater than 16.7 µM, the GI50 [54] was 3050 nM and the TGI [54] was 5.8 µM.
`O=[P@@]1(c2ccccc2)O[C@H](COCc2ccccc2)[C@@H](OCc2ccccc2)[C@H](OCc2ccccc2)[C@H]1NCc1ccccc1` was tested, and the GI50 [1] was 2970 nM, the TGI [1] was greater than 100 µM and the GI50 [2] was 3.21 µM. For the same compound, the TGI [2] was 47.3 µM, the GI50 [3] was 2.85 µM and the TGI [3] was 7.92 µM. For the same compound, the GI50 [4] was 2.39 µM, the TGI [4] was 8.99 µM and the GI50 [5] was 1.93 µM. It also gave a TGI [5] of 3.71 µM, a GI50 [6] of 4.48 µM and a TGI [6] greater than 100 µM. It also gave a GI50 [7] of 4.97 µM, a TGI [7] greater than 100 µM and a GI50 [8] of 3.47 µM. For the same compound, the TGI [8] was greater than 100 µM, the GI50 [9] was 3.25 µM and the TGI [9] was 18.6 µM. It also gave a GI50 [10] of 2220 nM, a TGI [10] of 6.76 µM and a GI50 [11] of 4.26 µM. For the same compound, the TGI [11] was greater than 100 µM, the GI50 [14] was 3.43 µM and the TGI [14] was 85.2 µM. For the same compound, the GI50 [55] was 2370 nM, the TGI [55] was 6.69 µM and the GI50 [15] was 3.73 µM. The TGI [15] was greater than 100 µM, the GI50 [16] was 2920 nM and the TGI [16] was 13.1 µM. For the same compound, the GI50 [17] was 3.16 µM, the TGI [17] was greater than 100 µM and the GI50 [18] was 3.66 µM. The TGI [18] was greater than 100 µM, the GI50 [19] was 4.74 µM and the TGI [19] was greater than 100 µM. The GI50 [21] was 3.24 µM, the TGI [21] was greater than 100 µM and the GI50 [22] was 3170 nM. The TGI [22] was 19.3 µM, the GI50 [23] was 2.86 µM and the TGI [23] was greater than 100 µM. For the same compound, the GI50 [24] was 3.38 µM, the TGI [24] was 70.4 µM and the GI50 [25] was 3.04 µM. The TGI [25] was greater than 100 µM, the GI50 [26] was 2380 nM and the TGI [26] was 7.8 µM. For the same compound, the GI50 [27] was 3.52 µM, the TGI [27] was greater than 100 µM and the GI50 [28] was 3.71 µM. It also gave a TGI [28] greater than 100 µM, a GI50 [56] of 2150 nM and a TGI [56] of 6.09 µM. For the same compound, the GI50 [29] was 3.22 µM, the TGI [29] was greater than 100 µM and the GI50 [30] was 2.59 µM. The TGI [30] was 7.11 µM, the GI50 [31] was 3.38 µM and the TGI [31] was greater than 100 µM. It also gave a GI50 [32] of 2.89 µM, a TGI [32] of 16.2 µM and a GI50 [33] of 3.21 µM. The TGI [33] was greater than 100 µM, the GI50 [34] was 2.71 µM and the TGI [34] was greater than 100 µM. For the same compound, the GI50 [35] was 3.21 µM, the TGI [35] was greater than 100 µM and the GI50 [36] was 3.83 µM. The TGI [36] was greater than 100 µM, the GI50 [37] was 3.51 µM and the TGI [37] was greater than 100 µM. For the same compound, the GI50 [38] was 2740 nM, the TGI [38] was greater than 100 µM and the GI50 [39] was 5.75 µM. The TGI [39] was greater than 100 µM, the GI50 [40] was 4.48 µM and the TGI [40] was greater than 100 µM. For the same compound, the GI50 [41] was 2590 nM, the TGI [41] was 6.79 µM and the GI50 [57] was 2050 nM. For the same compound, the TGI [57] was 6.68 µM, the GI50 [42] was 3.03 µM and the TGI [42] was greater than 100 µM. The GI50 [43] was 2080 nM, the TGI [43] was 47.5 µM and the GI50 [58] was 2150 nM. The TGI [58] was 8.66 µM, the GI50 [44] was 3.43 µM and the TGI [44] was greater than 100 µM. It also gave a GI50 [45] of 3.23 µM, a TGI [45] greater than 100 µM and a GI50 [47] of 1830 nM. It also gave a TGI [47] of 3.6 µM, a GI50 [48] of 3.77 µM and a TGI [48] greater than 100 µM. It also gave a GI50 [49] of 3.47 µM, a TGI [49] of 48.9 µM and a GI50 [50] of 3.69 µM. For the same compound, the TGI [50] was greater than 100 µM, the GI50 [51] was 2.97 µM and the TGI [51] was greater than 100 µM. The GI50 [52] was 3.54 µM, the TGI [52] was greater than 100 µM and the GI50 [53] was 3.03 µM. It also gave a TGI [53] greater than 100 µM, a GI50 [54] of 2920 nM and a TGI [54] greater than 100 µM.
